Measured values reported in patent US10543159B2, “Hair papilla cell activator” (Ezaki Glico Co., Ltd., priority 2014, dated 2020).

Test system: Wnt5a
Assay: Quantitative PCR gene expression in follicle dermal papilla cells: Wnt5a
Assay type: cell-based, human
Details: Example 3: 0.25% POs-Ca (R) or CaCl2 of equivalent calcium, DMEM, 37° C., 5 hours; Dunnett, n=6
Description: (1) 500 μl of a special medium in which 4×10^4 cells/ml of follicle dermal papilla cells were suspended was dispensed into a type I collagen-coated 24-well cell culture plate (Corning), and cultured at a cell density of 1.0×10^4 cells/cm^2 at 37° C. for 42 hours. […] Each of the solutions (a) to (c) was mixed with DMEM high glucose (Sigma, USA) at a ratio of 1:9.
(3) The medium was aspirated from each well obtained in (1), the well was washed by adding 1 ml of 1×PBS (137 mM NaCl, 8.1 mM Na2HPO4, 2.68 mM KCl, 1.47 mM KH2PO4 (pH 7.4); Wako Pure Chemical Industries, Ltd.), and aspirating the PBS, 500 μl of DMEM high glucose was added, and the cells were incubated in a CO2 incubator at 37° C. for 5 hours. […]
(4) The medium was removed from each well, and then mRNA was extracted using CellAmp Direct RNA Prep Kit for RT-PCR (Takara). The method was performed in accordance with the manual for the kit.
(5) 8 μl of the extracted mRNA solution (200 μl for each well) was used, and cDNA was obtained by the reverse transcription reaction at a scale of 40 μl, using PrimeScript RT Master Mix (Takara). The reaction conditions were as set forth in the manual for the kit.
(6) 0.5 μl of each of cDNA solutions diluted 2-fold with water, 1 μl of a solution containing 4 μM of each of primers 1 and 2 for each of the genes shown in Table 2, 5 μl of SYBR Premix Ex Taq II (Takara), and 3.5 μl of water were added, and quantitative PCR was performed on each of the genes. Using CFX96 Touch (BIO-RAD, USA), denaturation treatment at 95° C. for 30 seconds was performed, and then a two-step cycle at 95° C. for 5 seconds and at 62° C. for 20 seconds was performed for 65 cycles. Fluorescence intensity after each cycle was measured.
(7) Using PGK1 and GAPDH as reference genes, a comparative analysis of expression levels was performed with the analysis software (Bio-Rad CFX Manager 3.0) included in CFX96Touch. Relative expression levels were calculated under the default conditions of the software. […]

**Q.** How did the “expression of Wnt5a gene compared to control” value turn out when `O.O.[Ca+2].[Cl-].[Cl-]` [CaCl2, calcium chloride dihydrate] was run?
**A.** The value was “significant increases in the expression of genes were not observed”.
